Reference: ChEMBL document CHEMBL1143119, “Novel methylene-linked heterocyclic EP1 receptor antagonists” (Bioorg Med Chem Lett, 2008)

Key:
[1] = Distribution coefficient, log D at pH 7.8; assay type: physicochemical; settings: octanol/water
[2] = target: T1, Prostaglandin E2 receptor EP1 subtype (Homo sapiens, UniProt P34995); assay: Displacement of [3H]PGE2 from EP1 receptor
T1 sequence (P34995 whole entry): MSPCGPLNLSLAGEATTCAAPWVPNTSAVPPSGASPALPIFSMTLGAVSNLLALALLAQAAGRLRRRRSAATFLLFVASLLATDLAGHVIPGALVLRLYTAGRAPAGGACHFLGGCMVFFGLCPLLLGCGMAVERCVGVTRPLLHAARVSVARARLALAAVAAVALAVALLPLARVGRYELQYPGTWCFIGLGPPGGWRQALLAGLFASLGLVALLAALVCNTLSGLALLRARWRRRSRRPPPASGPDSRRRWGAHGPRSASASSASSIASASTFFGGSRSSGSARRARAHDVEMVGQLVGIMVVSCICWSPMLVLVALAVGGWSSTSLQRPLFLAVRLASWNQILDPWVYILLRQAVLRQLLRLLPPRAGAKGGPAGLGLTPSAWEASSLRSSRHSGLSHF

[3] = target: T1, Prostaglandin E2 receptor EP1 subtype; assay: Antagonist activity at EP1 receptor by FLIPR assay; assay type: functional

For O=C(O)c1cccc(C2=C(c3cc(Cl)ccc3OCc3ccccc3)CCC2)c1, which logD [1] is on record?
Its logD is 3.

With Cc1ccc(-c2cc(Cl)ccc2OCC(C)C)n1-c1cccc(C(=O)O)c1 as the molecule, how does the logD [1] read?
Its logD is 3.1.

With Cc1cc(C(=O)O)nn1Cc1cc(Br)ccc1OCc1ccccc1 as the molecule, how does the IC50 [2] read?
The IC50 was 6.31 nM.

What about the logD [1] of the same molecule?
The logD was 1.2.

Which IC50 [2] does the source give for CC(C)COc1ccc(Cl)cc1Cc1nc(C(=O)O)cs1 here?
Its IC50 is 7.94 nM.

What does the source list for O=C(O)c1csc(Cc2cc(Cl)ccc2OCc2ccccc2)n1?
IC50 [2]: 6.31 nM; logD [1]: 1.2

For O=C(O)c1csc(Cc2cc(Cl)ccc2OCc2ccccc2)c1, which IC50 [2] is on record?
Its IC50 is 39.8 nM.

And the logD [1]?
Its logD is 2.8.

What does the source list for O=C(O)c1coc(Cc2cc(Cl)ccc2OCc2ccccc2)n1?
IC50 [2]: 20 nM; logD [1]: 0.5; Ki [3]: 1.58 nM

Which IC50 [2] does the source give for O=C(O)c1cnc(Cc2cc(Cl)ccc2OCc2ccccc2)s1 here?
The IC50 was 631 nM.

And the logD [1]?
Its logD is 0.9.

Which IC50 [2] does the source give for O=C(O)c1nc(Cc2cc(Cl)ccc2OCc2ccccc2)cs1 here?
Its IC50 is 25.1 nM.

What about the logD [1] of the same molecule?
Its logD is 1.1.

Which IC50 [2] does the source give for O=C(O)c1cncc(Cc2cc(Cl)ccc2OCc2ccccc2)c1 here?
Its IC50 is 631 nM.

What about the logD [1] of the same molecule?
The logD was 1.4.

What does the source list for O=C(O)c1ccnc(Cc2cc(Cl)ccc2OCc2ccccc2)c1?
IC50 [2]: > 1000 nM; logD [1]: 1.1

With O=C(O)Cc1csc(Cc2cc(Cl)ccc2OCc2ccccc2)n1 as the molecule, how does the IC50 [2] read?
The IC50 was over 1000 nM.

For Cc1cc(CC(=O)O)nn1-c1cc(Cl)ccc1OCc1ccccc1, which IC50 [2] is on record?
Its IC50 is over 1000 nM.

For O=C(O)c1csc(-c2cc(Cl)ccc2OCc2ccccc2)n1, which IC50 [2] is on record?
Its IC50 is 631 nM.

What does the source list for O=C(O)c1cccc(Cc2cc(Cl)ccc2OCc2ccccc2)n1?
IC50 [2]: 158 nM; logD [1]: 2.2

For Cc1cc(C(=O)O)nn1Cc1cc(Cl)ccc1OCC(C)C, which IC50 [2] is on record?
The IC50 was 10 nM.

What about the Ki [3] of the same molecule?
Its Ki is 0.794 nM.

For O=C(O)c1ccc(Cc2cc(Cl)ccc2OCc2ccccc2)o1, which IC50 [2] is on record?
Its IC50 is 6.31 nM.

And the logD [1]?
Its logD is 1.5.

What about the Ki [3] of the same molecule?
Its Ki is 2 nM.

With O=C(O)c1cccc(Oc2cc(Cl)ccc2OCc2ccccc2)n1 as the molecule, how does the IC50 [2] read?
The IC50 was 794 nM.

With Cc1ccc(-c2cc(Cl)ccc2OCc2ccccc2)n1-c1cccc(C(=O)O)c1 as the molecule, how does the logD [1] read?
Its logD is 2.5.

Which IC50 [2] does the source give for O=C(O)c1csc(Nc2cc(Cl)ccc2OCc2ccccc2)n1 here?
The IC50 was 25.1 nM.

For CC(C)COc1ccc(Cl)cc1Cc1cccc(C(=O)O)n1, which IC50 [2] is on record?
Its IC50 is 39.8 nM.

And the Ki [3]?
Its Ki is 158 nM.

Which results are given for CC(C)COc1ccc(Cl)cc1Cc1ccc(C(=O)O)o1?
IC50 [2]: 3.16 nM; Ki [3]: 0.316 nM

With Cc1cc(C(=O)O)cn1Cc1cc(Cl)ccc1OCc1ccccc1 as the molecule, how does the IC50 [2] read?
Its IC50 is 158 nM.

And the logD [1]?
The logD was 3.

Which results are given for O=C(O)c1ccn(Cc2cc(Cl)ccc2OCc2ccccc2)n1?
IC50 [2]: 79.4 nM; logD [1]: 0.7

With O=C(O)c1cccc(Nc2ccccc2OCc2ccccc2)n1 as the molecule, how does the IC50 [2] read?
Its IC50 is over 1000 nM.

What does the source list for O=C(O)c1cccc(Cc2cc(Cl)ccc2OCc2ccccc2)c1?
IC50 [2]: 316 nM; logD [1]: 3

Which IC50 [2] does the source give for Cc1cc(C(=O)O)nn1Cc1cc(Cl)ccc1OCc1ccccc1 here?
Its IC50 is 10 nM.

And the logD [1]?
The logD was 1.

With O=C(O)Cc1csc(-c2cc(Cl)ccc2OCc2ccccc2)n1 as the molecule, how does the IC50 [2] read?
Its IC50 is 50.1 nM.

What does the source list for Cc1cc(C(=O)O)oc1Cc1cc(Cl)ccc1OCc1ccccc1?
IC50 [2]: 10 nM; logD [1]: 1.8; Ki [3]: 2 nM

With O=C(O)c1ccc(Cc2cc(Cl)ccc2OCc2ccccc2)s1 as the molecule, how does the IC50 [2] read?
The IC50 was 50.1 nM.

What about the logD [1] of the same molecule?
Its logD is 2.3.

What about the Ki [3] of the same molecule?
Its Ki is 15.8 nM.

With Cn1cc(C(=O)O)nc1Cc1cc(Cl)ccc1OCc1ccccc1 as the molecule, how does the IC50 [2] read?
Its IC50 is 316 nM.

And the logD [1]?
Its logD is 0.7.

Which IC50 [2] does the source give for O=C(O)c1c[nH]c(Cc2cc(Cl)ccc2OCc2ccccc2)n1 here?
The IC50 was over 1000 nM.

And the logD [1]?
The logD was 0.6.

With Cn1c(C(=O)O)cnc1Cc1cc(Cl)ccc1OCc1ccccc1 as the molecule, how does the IC50 [2] read?
The IC50 was over 1000 nM.

What about the logD [1] of the same molecule?
The logD was 0.7.
